The source of these data is publication PMC3783656 (Bioorganic & medicinal chemistry letters, 2013).

In brackets after ≈: the same amount, converted by molar mass. Where two headings read alike, the source gives them in different places.

Data set [1] concerns the target T1, CK1δ (Homo sapiens, UniProt P48730). Put plainly: CK1δ inhibition, in-house kinase inhibition assay. The following applies: read-out: IC50 CK1δ. It counts as biochemical.
Data set [2] deals with T1, CK1δ. Put plainly: CK1δ inhibition, Reaction Biology Corp. The format is biochemical. The settings on record: for IC50: read-out: IC50 CK1δ.
The target in a further data set is CK1ε (Homo sapiens, UniProt P49674). Put plainly: CK1ε inhibition, Reaction Biology Corporation. It counts as biochemical.
Chain of CK1ε (P49674 whole entry): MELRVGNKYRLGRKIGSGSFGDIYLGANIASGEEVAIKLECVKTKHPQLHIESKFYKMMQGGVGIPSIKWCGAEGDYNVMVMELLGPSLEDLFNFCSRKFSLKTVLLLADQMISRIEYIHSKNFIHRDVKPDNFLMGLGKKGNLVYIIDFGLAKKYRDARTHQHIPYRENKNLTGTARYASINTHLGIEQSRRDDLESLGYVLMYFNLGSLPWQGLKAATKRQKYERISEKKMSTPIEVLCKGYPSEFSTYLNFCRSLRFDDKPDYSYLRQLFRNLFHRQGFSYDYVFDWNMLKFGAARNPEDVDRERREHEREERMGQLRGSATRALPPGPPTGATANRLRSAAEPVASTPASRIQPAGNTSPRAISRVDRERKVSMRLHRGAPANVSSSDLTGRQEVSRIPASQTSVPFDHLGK
Data set [3] in a line: Solubility in DMEM/10% FBS. It counts as physicochemical.
Another data set deals with cytochrome P450 1A2 (Homo sapiens, UniProt P05177). Put plainly: Cyp assay, 1A2. The settings on record: at 10 μM. The format is in vitro ADME.
Chain of cytochrome P450 1A2 (P05177 whole entry, species assumed): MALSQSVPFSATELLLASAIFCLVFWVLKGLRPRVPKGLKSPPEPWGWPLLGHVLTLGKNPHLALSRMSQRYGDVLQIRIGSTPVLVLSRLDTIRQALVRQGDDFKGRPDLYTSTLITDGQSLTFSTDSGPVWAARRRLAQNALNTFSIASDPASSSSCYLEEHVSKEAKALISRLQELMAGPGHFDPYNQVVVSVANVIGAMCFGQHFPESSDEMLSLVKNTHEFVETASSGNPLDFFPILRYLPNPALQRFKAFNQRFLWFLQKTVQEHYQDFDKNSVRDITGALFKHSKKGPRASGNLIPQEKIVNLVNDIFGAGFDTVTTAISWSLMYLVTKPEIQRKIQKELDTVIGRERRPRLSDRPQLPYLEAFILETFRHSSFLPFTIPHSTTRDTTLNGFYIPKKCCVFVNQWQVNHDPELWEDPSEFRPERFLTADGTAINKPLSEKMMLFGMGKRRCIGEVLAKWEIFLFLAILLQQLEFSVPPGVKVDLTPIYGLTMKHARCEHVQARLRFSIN
Data set [4] in a line: Microsome stability, rat liver microsomes. In general terms: Liver microsomes are vesicles of endoplasmic reticulum, rich in cytochrome P450 enzymes.
The nature of the next data set: Mouse PK studies. The settings on record: IV dosing, 1 mg/kg, 10/10/80 DMSO/Tween/water. The format is in vivo.
Data set [5] is described as follows: Microsome stability, mouse liver microsomes.
Data set [6] concerns human melanoma A375 cell line. Put plainly: MTT assay against A375 melanoma cells. It counts as cell-based. A general note: Tetrazolium assays rely on reduction of a dye to a coloured formazan, in cell work by metabolically active cells.
Data set [7] can be described thus: Microsome stability, human liver microsomes.
Data set [8] has as its system CK1. The following applies: cited from earlier work.
Data set [9] concerns CK1. The following applies: cited from earlier work. The source holds these as a separate data set.
The next data set can be described thus: Solubility in PBS buffer. The format is physicochemical.
The next data set has as its system 442 kinases. Put plainly: DiscoverRX KINOMEscan analysis of 442 kinases. The format is binding. The settings on record: 10 μM, KINOMEscan of 442 kinases.
[10] abbreviates: data obtained by Reaction Biology Corp.
The mark [11] stands for this setting: read-out: MTT assay A375 EC50, human A375 melanoma cell line.

T1 sequence (P48730 whole entry): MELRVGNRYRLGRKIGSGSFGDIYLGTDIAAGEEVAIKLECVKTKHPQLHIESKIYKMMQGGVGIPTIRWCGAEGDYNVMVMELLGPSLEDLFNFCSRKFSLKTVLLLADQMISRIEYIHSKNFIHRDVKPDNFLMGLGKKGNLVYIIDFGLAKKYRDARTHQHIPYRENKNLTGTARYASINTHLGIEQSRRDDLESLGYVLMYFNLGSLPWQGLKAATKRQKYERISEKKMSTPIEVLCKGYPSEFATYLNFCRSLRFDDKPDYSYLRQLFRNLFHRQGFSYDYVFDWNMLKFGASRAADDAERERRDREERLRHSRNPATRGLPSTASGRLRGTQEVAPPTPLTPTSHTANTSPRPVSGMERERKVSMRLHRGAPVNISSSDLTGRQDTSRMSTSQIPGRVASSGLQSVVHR

As to `O=[N+]([O-])c1cccc2[nH]c(CNc3nc(N4CCOCC4)nc4c3ncn4-c3cccc(F)c3)nc12` [SR-2364], the IC50 on CK1δ [1] is 0.057 µM.

In the case of `O=[N+]([O-])c1ccc2[nH]c(CNc3nc(N4CCOCC4)nc4c3ncn4-c3ccsc3)nc2c1` [SR-1278], the IC50 at CK1δ [2] (setting [10]) turned out to be 0.021 µM.

Broadly, the Solubility is the dissolved amount per volume that the medium holds. Higher therefore signals a readily soluble substance. By AUC is commonly meant the area under the concentration-time curve, a measure of exposure. Higher therefore signals more exposure. Broadly, the Cmax is the peak of the concentration-time curve. What is called EC50 is the concentration needed to bring the measured effect to its halfway point. In the case of `c1ccc2[nH]c(CNc3nc(N4CCOCC4)nc4c3ncn4-c3ccsc3)nc2c1` [SR-653234], on CK1ε (read-out: CK1ε Inh IC50, data obtained by Reaction Biology Corporation), the IC50 is 0.54 µM. The molecule further gave a Solubility in [3] of 28 µM (≈ 12.1 µg/mL). For the same molecule, the “Inhibition of 1A2” value on cytochrome P450 1A2 is recorded as “e 86% Inhibition of 1A2 at 10 μM”. Also, the IC50 at CK1δ [2] (setting [10]) turned out to be 0.16 µM. The “Microsome stability T1/2 (rat)” value in [4] (rat liver microsomes, second value of h/r/m) stood at 6 min. For the same molecule, in the data set “Mouse PK studies”, the AUC was 1750 nM·h, the Cl amounted to 0.132 L/h/kg, the Cmax amounted to 3.2 µM and the T1/2 came to 43.8 min. Moreover, the “Microsome stability T1/2 (mouse)” value in data set [5] (mouse liver microsomes, third value of h/r/m) came out at 1 min. In data set [6] (setting [11]), the half-maximal effective concentration (EC50) was 0.111 µM. In [7] (human liver microsomes, first value of h/r/m), the “Microsome stability T1/2 (human)” value is on record as 11 min.

For `FC(F)(F)c1cccc2[nH]c(CNc3nc(N4CCOCC4)nc4c3ncn4-c3ccsc3)nc12` [SR-1272], at CK1δ [2] (setting [10]), the IC50 came out at 0.128 µM.

Turning to `NC(=O)c1ccc(-c2nc(-c3ccc4c(c3)OCCO4)c(-c3ccccn3)[nH]2)cc1` [Compound D4476], in the data set with CK1 [8] (cell-based assays), the “Activity in cell-based assays” value is 20 to 50 µM. Also, in the data set with CK1 [9] (read-out: CK1 inhibition in vitro, in vitro), the IC50 was […]. For the same molecule, in data set [6] (setting [11]), the EC50 came out at 10 µM.

Turning to `N#Cc1ccc2[nH]c(CNc3nc(N4CCOCC4)nc4c3ncn4-c3ccsc3)nc2c1` [SR-1276], on CK1δ [2] (setting [10]), the IC50 came to 0.011 µM.

Regarding `COc1ccc2[nH]c(CNc3nc(N4CCOCC4)nc4c3ncn4-c3ccsc3)nc2c1` [SR-1279], at CK1δ [2] (setting [10]), the IC50 came out at 0.017 µM.

Regarding `O=[N+]([O-])c1cccc2[nH]c(CNc3nc(N4CCOCC4)nc4c3ncn4-c3ccc(F)cc3)nc12` [SR-2362], on CK1δ [2] (setting [10]), the “IC50 CK1δ” value was “essentially inactive” and the IC50 is above 1 µM.

Turning to `CC(C)(C)c1cc(NC(=O)Nc2ccc(-c3cn4c(n3)sc3cc(OCCN5CCOCC5)ccc34)cc2)no1` [AC220, reference compound], on CK1ε, the “Activity against CK1ε” value is “inactive”. On CK1δ [2], the “Activity against CK1δ” value is “inactive”. The EC50 in data set [6] (Homo sapiens, A-375, read-out: MTT assay A375 EC50) was 1.57 µM.

Consider `CS(=O)(=O)c1cccc2[nH]c(CNc3nc(N4CCOCC4)nc4c3ncn4-c3ccsc3)nc12` [SR-2805], for which the IC50 at CK1δ [2] (setting [10]) is 0.016 µM.

In the case of `Fc1ccc2[nH]c(CNc3nc(N4CCOCC4)nc4c3ncn4-c3ccsc3)nc2c1` [SR-1275], the IC50 at CK1δ [2] (setting [10]) was found to be 0.05 µM.

As for `Clc1ccc2[nH]c(CNc3nc(N4CCOCC4)nc4c3ncn4-c3ccsc3)nc2c1` [SR-1274], the IC50 on CK1δ [2] (setting [10]) came to 0.105 µM.

Turning to `O=C(Nc1nc2ccc(C(F)(F)F)cc2[nH]1)c1csc(NC(=O)c2ccccc2OC(F)(F)F)n1` [Bischof-5, reference compound], the EC50 in [6] (setting [11]) was determined as 2.3 µM.

Turning to `O=[N+]([O-])c1cccc2[nH]c(CNc3nc(N4CCOCC4)nc4c3ncn4-c3ccoc3)nc12` [SR-2007], on CK1δ [2] (setting [10]), the IC50 was 0.019 µM.

As to `c1ccc2[nH]c(CNc3nc(N4CCOCC4)nc4c3ncn4C3CCCC3)nc2c1` [SR-2149], the IC50 at CK1δ [2] (setting [10]) is 0.057 µM.

With `CS(=O)(=O)c1ccc2[nH]c(CNc3nc(N4CCOCC4)nc4c3ncn4-c3ccsc3)nc2c1` [SR-2797], on CK1δ [2] (setting [10]), the IC50 turned out to be 0.01 µM.

`c1ccc2[nH]c(CNc3nc(N4CCNCC4)nc4c3ncn4-c3ccsc3)nc2c1` [SR-1292]: on CK1δ [2] (setting [10]), the IC50 was determined as 0.003 µM. In “Solubility in PBS buffer”, this molecule came in with a Solubility of 75 µM (≈ 32.4 µg/mL).

Consider `O=[N+]([O-])c1cccc2[nH]c(CNc3nc(N4CCOCC4)nc4c3ncn4-c3cc(F)cc(F)c3)nc12` [SR-2368], for which the IC50 on CK1δ [1] came to 0.075 µM.

Take `NCCNS(=O)(=O)c1ccc(Cl)c2ccncc12` [CKI-7]: the IC50 in the data set on CK1 [9] (read-out: CK1 inhibition) is 6 µM.

Take `Nc1nccc(-c2c(-c3ccc(F)cc3)ncn2C2CCCCC2)n1` [PF-670462, reference compound]: in data set [6] (setting [11]), the EC50 is above 10 µM. For the same molecule, the “Number of kinases inhibited ≥90%” value with 442 kinases was 44.

Take `Clc1ccc2[nH]c(CNc3nc(N4CCNCC4)nc4c3ncn4-c3ccsc3)nc2c1` [SR-2876]: the IC50 at CK1δ [1] turned out to be 0.051 µM. The Solubility in the data set “Solubility in PBS buffer” was 54 µM (≈ 25.2 µg/mL).

For orientation: half-life means how long it takes for the measured level to halve. Regarding `CCN(CC)CCNC(=O)c1c(C)[nH]c(/C=C2\C(=O)Nc3ccc(F)cc32)c1C` [Sunitinib, sunitinib, reference compound], the half-life was determined as 21 min in data set [4] (rat, liver microsomes); 21 min in [5] (mouse, liver microsomes); 54 min in data set [7] (human, liver microsomes).

As for `CC1CN(c2nc(NCc3nc4ccccc4[nH]3)c3ncn(-c4ccsc4)c3n2)CCN1` (stereo not drawn) [SR-2915], on CK1δ [1], the IC50 stood at 0.199 µM.

Take `Clc1ccc2[nH]c(CNc3nc(N4CCOCC4)nc4c3ncn4-c3ccoc3)nc2c1` [SR-2850]: the IC50 on CK1δ [2] (setting [10]) stood at 0.023 µM.

For the molecule `FC(F)(F)c1ccc2[nH]c(CNc3nc(N4CCOCC4)nc4c3ncn4-c3ccsc3)nc2c1` [SR-1273], the IC50 at CK1δ [2] (setting [10]) was determined as 0.013 µM.

As for `COc1cc(OC)c(C=C2C(O)=Nc3ccccc32)c(OC)c1` [IC261], the IC50 in the data set with CK1 [8] (read-out: IC50 for CK1 inhibition in cells, in cells) was 25 µM; in the data set on CK1 [9] (read-out: IC50 for CK1 inhibition in vitro, in vitro) it was 1 µM.

With `CC[C@H](CO)Nc1nc(Nc2cccc(-c3ccccn3)c2)c2ncn(C(C)C)c2n1` [(R)-DRF053], in the data set with CK1 [9] (read-out: CK1 inhibition, dual CK1/CDK inhibitor), the IC50 is 0.014 µM.

As for `CN1CCN(c2nc(NCc3nc4ccccc4[nH]3)c3ncn(-c4ccsc4)c3n2)CC1` [SR-1294], on CK1δ [2] (setting [10]), the IC50 was 0.011 µM.

Consider `NC1CCN(c2nc(NCc3nc4cc(Cl)ccc4[nH]3)c3ncn(-c4ccsc4)c3n2)CC1` [SR-2875], for which the IC50 at CK1δ [1] stood at 0.119 µM.
